Where a SMILES comes first, the peptide text is derived from it. [ ]: non-standard residue; d: D form. The star is where a group is joined. Sta = CC(C)C[C@H](N)[C@@H](O)CC(=O)O; Isovaleryl = CC(C)CC(=O)*
Columns and labels:
rodent GSK3β homologs = settings: cited from earlier work
[1] = system: CD49D purified EDNRB−/− hESC-derived ENC; test: Scratch (migration) assay on EDNRB−/− ENC precursors; format: cell-based, human
Method: The ENC cells were plated on PO/LM/FN coated (prepared as described previously^38) 96 well or 48 well culture plates (30,000/cm^2). 24 hours later the culture lawn was scratched manually using a pipette tip. The cells were given an additional 24-48 hours to migrate into the scratch area and fixed for imaging and quantification. The quantification was based on the percentage of the nuclei that are located in the scratch area after the migration period. The scratch area was defined using a reference well that was fixed immediately after scratching. Migration of cells were quantified using the open source data analysis software KNIME^41 (http://knime.org) with the “Quantification in ROI” plug-in as described in detail elsewhere^42.
The chemical compound screening was performed using the Prestwick Chemical Library®. The ENC cells were plated in 96 well plates (30,000/cm^2) and scratched manually 24 hours before addition of the compounds. The cells were treated with two concentrations of the compounds (10 μM and 1 μM). The plates were fixed 24 hours later for total plate imaging. The compounds were scores based on their ability to promote filling of the scratch in 24 hours. […] The hits were further validated to ensure reproducibility. The cells were treated with various concentrations of the selected hit compound (Pepstatin A) for dose response analysis. The optimal dose (10 μM-based on optimal response and viability) was used for follow-up experiments. For the pre-treatment experiments, cells were CD49D purified at day 11 and treated with Pepstatin A from day 12 through day 15 followed by transplantation into the colon wall of NSG mice.
To inhibit BACE2, the ENC precursors were treated with 1 μM β-Secretase Inhibitor IV (CAS 797035-11-1—Calbiochem). […] The Knockdown was confirmed by qRT-PCR measurement of BACE2 mRNA levels in cells transfected with the BACE2 siRNAs vs. the control siRNA pool (ON-TARGETplus Non-targeting Pool, Dharmacon, D-001810-10-05). The transfected cells were scratched 24 hours after plating and fixed 48 hours later for migration quantification.

[2] = system: EDNRB−/− hESC-derived ENC precursors; test: Colon migration after transplantation of pre-treated EDNRB−/− ENC precursors into NSG mice; format: in vivo, human cells in NSG mice; settings: EDNRB-null precursors pre-treated for 72 hours before transplantation, 2 weeks
Method: All mouse procedures were performed following NIH guidelines, and were approved by the local Institutional Animal Care and Use Committee (IACUC), the Institutional Biosafety Committee (IBC) as well as the Embryonic Stem Cell Research Committee (ESCRO). 3-6 week old male NSG (NOD.Cg-Prkdc^scid Il2rg^tm1Wjl/SzJ) mice or 2-3 weeks old EDNRB^s-l/s-l (SSL/LeJ) mice^39 (n=12, 6 male, 6 female) were used for these studies. […] Animals were randomly selected for the various treatment paradigms (NSG and EDNRB^s-l/s-l) but assuring for equal distribution of male/female ratio in each group (EDNRB^s-l/s-l). Animals were anesthetized with isoflurane (1%) throughout the procedure, a small abdominal incision was made, abdominal wall musculature lifted and the cecum is exposed and exteriorized. Warm saline was used to keep the cecum moist. 20 μl of cell suspension (2-4 million RFP+CD49D purified hESC-derived ENC precursors) in 70% matrigel (BD Biosciences, 354234) in PBS or 20 μl of 70% matrigel in PBS only (control grafted animals) were slowly injected into the cecum (targeting the muscle layer) using a 27-gauge needle. […]
The harvested colon samples were fixed in 4% PFA at 4° C. overnight before imaging. Imaging was performed using Maestro fluorescence imaging system (Biotechniques). […]

## Cc1c[nH]c(-c2cnc(NCCNc3ccc(C#N)cn3)nc2-c2ccc(Cl)cc2Cl)n1 [CHIR99021, 6-(2-(4-(2,4-dichlorophenyl)-5-(4-methyl-1H-imidazol-2-yl)pyrimidin-2-ylamino)ethylamino)nicotinonitrile]
Rodent GSK3β homologs
  IC50 values against rodent GSK3β homologs: nanomolar

## CC(C)CC(=O)N[C@H](C(=O)N[C@H](C(=O)N[C@@H](CC(C)C)[C@@H](O)CC(=O)N[C@@H](C)C(=O)N[C@@H](CC(C)C)[C@@H](O)CC(=O)O)C(C)C)C(C)C [Pepstatin A] (Isovaleryl-VV[Sta]A[Sta]-OH)
[1]; EDNRB−/− hESC derived NC precursors, range of concentrations, treatment started 24 hrs before scratching
  rescue of the migration defect in scratch assay: dose-dependent, near complete rescue of the migration defect
[1]; dose response analysis, EDNRB−/− ENC
  optimal dose (based on optimal response and viability): 10 µM
[2]
  rescue of in vivo migration behavior in adult colon: significant rescue of the in vivo migration behavior

## BACE inhibitor IV
[1]; EDNRB−/− hESC-derived ENC, 1 μM
  rescue of the migration defect in scratch assay: rescued the migration defect

— patent publication US12371662B2, “Cell-based treatment and drug discovery in Hirschsprung's disease enabled by pluripotent stem cell-derived human enteric neural crest lineages” (MEMORIAL SLOAN-KETTERING CANCER CENTER, priority 2015, dated 2025)
